Counter-ions that a name gives are not always drawn. Like-named read-outs stand apart in the source and are kept apart here.
Experiments:
Assay type in all cases: biochemical
Falcipain-2 = Falcipain-2 (Plasmodium falciparum, UniProt Q8I6U4); test: Falcipain-2 enzymatic assay (assay 1)
Description: (§1) Assay 1) Determination of Falcipain-2, Falcipain-3, Vivapain-2, Cathepsin K Cathepsin S, Cathepsin L, and Cathepsin B Proteolytic Catalytic Activity
(§2) Assays for Falcipain-2, Falcipain-3, and Vivapain-2 are carried out with parasitic recombinant enzymes. Cathepsins K, S, L, and B are carried out with human recombinant enzymes. Standard assay conditions for the determination of kinetic constants used a fluorogenic peptide substrate, typically H-D-VLR-AFC (Falcipain-2, Falcipain-3, Vivapain-2), Z-FR-AFC (Cathepsin K, L, B), or KQKLR-AMC (Cathepsin S) and are determined in 100 mM sodium acetate, pH 5.5, containing 10 mM DTT and 0.5 mM CHAPS (Falcipain-2, Falcipain-3, Vivapain-2), and 100 mM sodium acetate, pH 5.5, containing 5 mM L-cysteine, 1 mM CHAPS and 5 mM EDTA (Cathepsin K, L, B), or 50 mM MES, pH 6.5, containing 0.5 mM CHAPS, 10 mM L-CYS, 5 mM EDTA (Cathepsin S). Stock substrate solutions are prepared at 20 mM in DMSO. The activity assays contained 30 uM substrate (Falcipain-2, Falcipain-3, Vivapain-2), 20 uM substrate (Cathepsin K), 25 uM substrate (Cathepsin B), 5 uM substrate (Cathepsin L), and 30 uM substrate (Cathepsin S). All assays contained 1% DMSO. […] All assays are conducted at ambient temperature as end point assays being quenched after 60 minutes with the exception of Cathepsin S at 90 minutes, with 16.6 uM E-64 in 1% DMSO. Product formation (AFC or AMC) is determined from fluorescence (excitation at 405 nm; emission at 530 nm, AFC, or excitation at 360 nm; emission at 460 nm, AMC) monitored with a LJL Aquest (Molecular Devices) fluorescent plate reader. In the case of kinetic reads (used in mechanism of action studies), the reaction is not quenched but is read in the plate reader every 3 minutes for approximately 90 minutes. In addition, the mechanism of action studies for Falcipain-2 utilize Z-LR-AMC as the substrate. Product formation is determined from the fluorescence of AMC, measured with a LJL Acquest (Molecular Devices) fluorescent plate reader (excitation at 360 nm; emission at 460 nm).
(§3) Potential inhibitors are evaluated using the quenched read (endpoint) method. Assays are carried out in the presence of variable concentrations of test compound. Reactions are initiated by addition of enzyme and substrate to wells containing inhibitor stamped in 100% DMSO. For endpoint assays, the reaction is quenched with the addition of E64. Dose response data is fit to an IC50 curve with preset fitting tools according to equation 1:
(§4) y=a+(b−a)/(1+(10^x/10^c)^d) (1)
(§5) where y is the response at a particular inhibitor concentration x, a is the minimum response value, b is the maximum response value, c is the IC50, and d is the slope of the IC50 curve. Assuming the compound is a competitive inhibitor, the apparent KI can be calculated from IC50, as shown in equation 2: […]

Falcipain-3 = Falcipain-3 (Plasmodium falciparum, UniProt Q8IIL0); test: Falcipain-3 enzymatic assay (assay 1)
Chain of Falcipain-3 (Q8IIL0 243-492): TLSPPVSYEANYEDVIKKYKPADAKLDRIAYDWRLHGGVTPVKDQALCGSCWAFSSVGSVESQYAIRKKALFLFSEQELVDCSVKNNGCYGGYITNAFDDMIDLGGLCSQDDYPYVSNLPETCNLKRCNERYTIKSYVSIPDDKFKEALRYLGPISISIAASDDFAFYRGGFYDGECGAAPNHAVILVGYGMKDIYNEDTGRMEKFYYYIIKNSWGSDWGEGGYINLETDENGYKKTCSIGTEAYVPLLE
Description: as §1, §2, §3, §4, §5

Cathepsin K = biological target: T1, Cathepsin K (Homo sapiens, UniProt P43235); test: Cathepsin K enzymatic assay (assay 1); conditions: human recombinant enzyme, Z-FR-AFC substrate, pH 5.5
T1 sequence (P43235 115-329): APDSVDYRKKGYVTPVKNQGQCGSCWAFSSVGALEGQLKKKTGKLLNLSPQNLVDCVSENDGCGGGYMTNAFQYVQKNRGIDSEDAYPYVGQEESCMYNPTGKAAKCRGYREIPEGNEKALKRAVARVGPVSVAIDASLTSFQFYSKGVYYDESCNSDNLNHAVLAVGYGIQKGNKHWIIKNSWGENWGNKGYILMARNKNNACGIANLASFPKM
Description: as §1, §2, §3, §4, §5

Chain of Falcipain-2 (Q8I6U4 244-484): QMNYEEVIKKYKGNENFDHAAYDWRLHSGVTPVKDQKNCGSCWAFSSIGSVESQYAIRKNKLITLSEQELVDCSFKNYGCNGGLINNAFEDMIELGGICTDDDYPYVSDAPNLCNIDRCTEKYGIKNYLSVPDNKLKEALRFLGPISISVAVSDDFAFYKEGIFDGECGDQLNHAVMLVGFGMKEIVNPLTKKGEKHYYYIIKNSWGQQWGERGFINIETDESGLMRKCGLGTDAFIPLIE

Compound: CN1CCN(C2CCN(Cc3ccc(C(=O)NN(c4nc(C#N)ncc4Br)C4CCCC4)cc3)CC2)CC1 [Example 10, N′-(5-bromo-2-cyano-4-pyrimidinyl)-N′-cyclopentyl-4-{[4-(4-methyl-1-piperazinyl)-1-piperidinyl]methyl}benzohydrazide trifluoroacetate]
- IC50 (Falcipain-2): < 1 nM
- IC50 (Falcipain-3): 2.5 to 15 nM
- IC50 (Cathepsin K): < 1.5 nM

Compound: CN1CCN(C2CCN(Cc3cccc(C(=O)NN(c4nc(C#N)ncc4Br)C4CCCC4)c3)CC2)CC1 [Example 11, N′-(5-bromo-2-cyano-4-pyrimidinyl)-N′-cyclopentyl-3-{[4-(4-methyl-1-piperazinyl)-1-piperidinyl]methyl}benzohydrazide trifluoroacetate]
- IC50 (Falcipain-2): < 1 nM
- IC50 (Falcipain-3): 2.5 to 15 nM
- IC50 (Cathepsin K): < 1.5 nM

Compound: CN1CCN(C(=O)C2CCN(Cc3cccc(C(=O)NN(c4nc(C#N)ncc4Br)C4CCCC4)c3)CC2)CC1 [Example 12, N′-(5-bromo-2-cyano-4-pyrimidinyl)-N′-cyclopentyl-3-({4-[(4-methyl-1-piperazinyl)carbonyl]-1-piperidinyl}methyl)benzohydrazide trifluoroacetate]
- IC50 (Falcipain-2): < 1 nM
- IC50 (Falcipain-3): 2.5 to 15 nM
- IC50 (Cathepsin K): < 1.5 nM

Compound: CN1CCCC(CN2CCN(Cc3cccc(C(=O)NN(c4nc(C#N)ncc4Br)C4CCCC4)c3)CC2)C1 (stereo not drawn) [Example 14, N′-(5-bromo-2-cyano-4-pyrimidinyl)-N′-cyclopentyl-3-({4-[(1-methyl-3-piperidinyl)methyl]-1-piperazinyl}methyl)benzohydrazide trifluoroacetate]
- IC50 (Falcipain-2): < 1 nM
- IC50 (Falcipain-3): 2.5 to 15 nM
- IC50 (Cathepsin K): < 1.5 nM

Compound: CN1CCC(CN2CCN(Cc3cccc(C(=O)NN(c4nc(C#N)ncc4Br)C4CCCC4)c3)CC2)CC1 [Example 15, N′-(5-bromo-2-cyano-4-pyrimidinyl)-N′-cyclopentyl-3-({4-[(1-methyl-4-piperidinyl)methyl]-1-piperazinyl}methyl)benzohydrazide trifluoroacetate]
- IC50 (Falcipain-2): < 1 nM
- IC50 (Falcipain-3; parasitic recombinant enzyme, H-D-VLR-AFC substrate, pH 5.5, endpoint read, read-out: Falcipain-3 IC50): 2.5 to 15 nM
- IC50 (Cathepsin K): < 1.5 nM

Compound: N#Cc1ncc(Br)c(N(NC(=O)c2ccc(CN3CCC(N4CCOCC4)CC3)cc2)C2CCCCC2)n1 [Example 18, N′-(5-bromo-2-cyano-4-pyrimidinyl)-N′-cyclohexyl-4-{([4-(4-morpholinyl)-1-piperidinyl]methyl}benzohydrazide trifluoroacetate]
- IC50 (Falcipain-2): < 1 nM
- IC50 (Falcipain-3): 2.5 to 15 nM
- IC50 (Cathepsin K): < 1.5 nM

Compound: CN1CCC(CN2CCN(Cc3ccc(C(=O)NN(c4nc(C#N)ncc4Br)C4CCCCC4)cc3)CC2)CC1 [Example 19, N′-(5-bromo-2-cyano-4-pyrimidinyl)-N′-cyclohexyl-4-({4-[(-methyl-4-piperidinyl)methyl]-1-piperazinyl}methyl)benzohydrazide trifluoroacetate]
- IC50 (Falcipain-2): < 1 nM
- IC50 (Falcipain-3): 2.5 to 15 nM
- IC50 (Cathepsin K): < 1.5 nM

Compound: CN1CCN(C2CCN(Cc3cccc(C(=O)NN(c4nc(C#N)ncc4Br)C4CCCCC4)c3)CC2)CC1 [Example 20, N′-(5-bromo-2-cyano-4-pyrimidinyl)-N′-cyclohexyl-3-{([4-(4-methyl-1-piperazinyl)-1-piperidinyl]methyl}benzohydrazide trifluoroacetate]
- IC50 (Falcipain-2): < 1 nM
- IC50 (Falcipain-3): 15 to 150 nM
- IC50 (Cathepsin K): < 1.5 nM

Compound: N#Cc1ncc(Br)c(N(NC(=O)c2ccc(CN3CCC(O)CC3)cc2)C2CCCCC2)n1 [Example 21, N′-(5-bromo-2-cyano-4-pyrimidinyl)-N′-cyclohexyl-4-[(4-hydroxy-1-piperidinyl)methyl]benzohydrazide trifluoroacetate]
- IC50 (Falcipain-2): < 1 nM
- IC50 (Falcipain-3): 2.5 to 15 nM
- IC50 (Cathepsin K): < 1.5 nM

Compound: CN1CCN(C(=O)C2CCN(Cc3ccc(C(=O)NN(c4nc(C#N)ncc4Br)C4CCCCC4)cc3)CC2)CC1 [Example 22, N′-(5-bromo-2-cyano-4-pyrimidinyl)-N′-cyclohexyl-4-({4-[(4-methyl-1-piperazinyl)carbonyl]-1-piperidinyl}methyl)benzohydrazide trifluoroacetate]
- IC50 (Falcipain-2): < 1 nM
- IC50 (Falcipain-3): 2.5 to 15 nM
- IC50 (Cathepsin K): < 1.5 nM

Compound: CN1CCN(C(=O)C2CCN(Cc3cccc(C(=O)NN(c4nc(C#N)ncc4Br)C4CCCCC4)c3)CC2)CC1 [Example 23, N′-(5-bromo-2-cyano-4-pyrimidinyl)-N′-cyclohexyl-3-({4-[(4-methyl-1-piperazinyl)carbonyl]-1-piperidinyl}methyl)benzohydrazide trifluoroacetate]
- IC50 (Falcipain-2): < 1 nM
- IC50 (Falcipain-3): 2.5 to 15 nM
- IC50 (Cathepsin K): < 1.5 nM

Compound: N#Cc1ncc(Br)c(N(NC(=O)c2cccc(CN3CCC(N4CCOCC4)CC3)c2)C2CCCCC2)n1 [Example 24, N′-(5-bromo-2-cyano-4-pyrimidinyl)-N′-cyclohexyl-3-{[4-(4-morpholinyl)-1-piperidinyl]methyl}benzohydrazide trifluoroacetate]
- IC50 (Falcipain-2): < 1 nM
- IC50 (Falcipain-3): 2.5 to 15 nM
- IC50 (Cathepsin K): < 1.5 nM

Compound: CN1CCCC(CN2CCN(Cc3ccc(C(=O)NN(c4nc(C#N)ncc4Br)C4CCCCC4)cc3)CC2)C1 (stereo not drawn) [Example 25, N′-(5-bromo-2-cyano-4-pyrimidinyl)-N′-cyclohexyl-4-({4-[(-methyl-3-piperidinyl)methyl]-1-piperazinyl}methyl)benzohydrazide trifluoroacetate]
- IC50 (Falcipain-2): < 1 nM
- IC50 (Falcipain-3): 2.5 to 15 nM
- IC50 (Cathepsin K): < 1.5 nM

Compound: CN1CCC(CN2CCN(Cc3ccc(C(=O)NN(c4nc(C#N)ncc4Br)C4CCOCC4)cc3)CC2)CC1 [Example 30, N′-(5—Bromo-2-cyano-4-pyrimidinyl)-4-({4-[(1-methyl-4-piperidinyl)methyl]-1-piperazinyl}methyl)-N′-(tetrahydro-2H-pyran-4-yl)benzohydrazide trifluoroacetate]
- IC50 (Falcipain-2): 1 to 2.5 nM
- IC50 (Falcipain-3): 2.5 to 15 nM
- IC50 (Cathepsin K): < 17 nM

Compound: CN1CCCC(CN2CCN(Cc3ccc(C(=O)NN(c4nc(C#N)ncc4Br)C4CCOCC4)cc3)CC2)C1 (stereo not drawn) [Example 31, N′-(5—Bromo-2-cyano-4-pyrimidinyl)-4-({4-[(1-methyl-3-piperidinyl)methyl]-1-piperazinyl}methyl)-N′-(tetrahydro-2H-pyran-4-yl)benzohydrazide trifluoroacetate]
- IC50 (Falcipain-2): < 1 nM
- IC50 (Falcipain-3): 15 to 150 nM
- IC50 (Cathepsin K): < 17 nM

Compound: CN1CCN(C(=O)C2CCN(Cc3ccc(C(=O)NN(c4nc(C#N)ncc4Br)C4CCOCC4)cc3)CC2)CC1 [Example 32, N′-(5—Bromo-2-cyano-4-pyrimidinyl)-4-({4-[(4-methyl-1-piperazinyl)carbonyl]-1-piperidinyl}methyl)-N′-(tetrahydro-2H-pyran-4-yl)benzohydrazide trifluoroacetate]
- IC50 (Falcipain-2): < 1 nM
- IC50 (Falcipain-3): 2.5 to 15 nM
- IC50 (Cathepsin K): < 17 nM

Compound: N#Cc1ncc(Br)c(N(NC(=O)c2ccc(CN3CC(N4CCCC4)C3)cc2)C2CCOCC2)n1 [Example 33, N′-(5-bromo-2-cyano-4-pyrimidinyl)-4-{[3-(1-pyrrolidinyl)-1-azetidinyl]methyl}-N′-(tetrahydro-2H-pyran-4-yl)benzohydrazide trifluoroacetate]
- IC50 (Falcipain-2): < 1 nM
- IC50 (Falcipain-3): 15 to 150 nM
- IC50 (Cathepsin K): < 17 nM

Compound: CN1CCC(CN2CCN(Cc3ccc(C(=O)NN(c4nc(C#N)ncc4Cl)C4CCOCC4)cc3)CC2)CC1 [Example 35, N′-(5-Chloro-2-cyano-4-pyrimidinyl)-4-({4-[(1-methyl-4-piperidinyl)methyl]-1-piperazinyl}methyl)-N′-(tetrahydro-2H-pyran-4-yl)benzohydrazide trifluoroacetate]
- IC50 (Falcipain-2): 1 to 2.5 nM
- IC50 (Falcipain-3): 15 to 150 nM
- IC50 (Cathepsin K): < 17 nM
